Experimental findings from patent US10221197B2, “Phosphatidylinositol 3-kinase inhibitors” (Gilead Sciences, Inc., priority 2014, dated 2019) are described below.

Common to all, as to format: biochemical
Test [1] addresses PI3Kδ (Homo sapiens (Human), UniProt O00329). Briefly: TR-FRET enzymatic assay of PI3K isoforms (PI3Kδ). To be noted: 2×Km ATP, 2 μM PIP2, incubated for 30 minutes at 25° C., read-out: δ IC50. The method, then:
(§1) The compounds of formula (I) were characterized for their enzymatic activity against the PI3K isoforms. Certain compounds of the present application, including certain compounds of formula (II) and (III) were also characterized for their enzymatic activity against PI3K isoforms. The activities were measured using a time-resolved fluorescence resonance energy transfer (TR-FRET) assay.

Test [2] concerns the target PI3Kβ (Homo sapiens (Human), UniProt P42338). In words: TR-FRET enzymatic assay of PI3K isoforms (PI3Kβ). As to conditions: TR-FRET, 2×Km ATP, 2 μM PIP2, incubated for 30 minutes at 25° C.; read-out: β IC50. The method, then: as §1
In test [3] the target is PI3Kγ (Homo sapiens (Human), UniProt P48736). Briefly: TR-FRET enzymatic assay of PI3K isoforms (PI3Kγ). To be noted: TR-FRET, 2×Km ATP, 2 μM PIP2, PI3Kγ at 2 nM, incubated for 30 minutes at 25° C.; read-out: γ IC50. The method, then:
as §1
(TR-FRET usually uses a lanthanide donor and a delayed reading to cut background.)

Chain of PI3Kγ (P48736 whole entry, canonical isoform): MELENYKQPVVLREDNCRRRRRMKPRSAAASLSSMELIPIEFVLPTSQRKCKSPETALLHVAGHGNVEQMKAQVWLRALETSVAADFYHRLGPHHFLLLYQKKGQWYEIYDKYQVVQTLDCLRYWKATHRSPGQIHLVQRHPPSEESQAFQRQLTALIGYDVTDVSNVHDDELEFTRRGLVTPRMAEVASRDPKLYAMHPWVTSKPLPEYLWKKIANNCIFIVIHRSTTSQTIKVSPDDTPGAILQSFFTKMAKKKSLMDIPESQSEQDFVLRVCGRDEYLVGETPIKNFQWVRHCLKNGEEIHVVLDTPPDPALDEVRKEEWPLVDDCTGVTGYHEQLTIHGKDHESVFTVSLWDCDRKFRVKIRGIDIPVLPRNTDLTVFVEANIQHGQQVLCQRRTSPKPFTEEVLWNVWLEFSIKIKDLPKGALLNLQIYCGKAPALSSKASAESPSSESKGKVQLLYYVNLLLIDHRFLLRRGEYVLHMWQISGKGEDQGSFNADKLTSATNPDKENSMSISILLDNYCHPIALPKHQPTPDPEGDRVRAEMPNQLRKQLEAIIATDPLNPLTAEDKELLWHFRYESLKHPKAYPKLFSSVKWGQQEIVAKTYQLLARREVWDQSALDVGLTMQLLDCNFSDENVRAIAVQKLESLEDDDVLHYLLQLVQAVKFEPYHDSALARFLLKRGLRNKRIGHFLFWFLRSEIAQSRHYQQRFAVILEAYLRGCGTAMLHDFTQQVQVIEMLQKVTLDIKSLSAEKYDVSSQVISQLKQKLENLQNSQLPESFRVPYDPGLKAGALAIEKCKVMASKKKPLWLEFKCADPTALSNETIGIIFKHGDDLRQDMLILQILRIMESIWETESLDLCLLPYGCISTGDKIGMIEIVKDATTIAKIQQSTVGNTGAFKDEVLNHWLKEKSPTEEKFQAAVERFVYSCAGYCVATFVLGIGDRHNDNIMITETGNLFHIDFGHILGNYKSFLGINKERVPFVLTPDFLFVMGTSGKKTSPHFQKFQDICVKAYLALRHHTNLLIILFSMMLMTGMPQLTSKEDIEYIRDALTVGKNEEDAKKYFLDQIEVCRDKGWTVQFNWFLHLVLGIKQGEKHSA
Chain of PI3Kγ (Q8WYR1 whole entry partner, canonical isoform): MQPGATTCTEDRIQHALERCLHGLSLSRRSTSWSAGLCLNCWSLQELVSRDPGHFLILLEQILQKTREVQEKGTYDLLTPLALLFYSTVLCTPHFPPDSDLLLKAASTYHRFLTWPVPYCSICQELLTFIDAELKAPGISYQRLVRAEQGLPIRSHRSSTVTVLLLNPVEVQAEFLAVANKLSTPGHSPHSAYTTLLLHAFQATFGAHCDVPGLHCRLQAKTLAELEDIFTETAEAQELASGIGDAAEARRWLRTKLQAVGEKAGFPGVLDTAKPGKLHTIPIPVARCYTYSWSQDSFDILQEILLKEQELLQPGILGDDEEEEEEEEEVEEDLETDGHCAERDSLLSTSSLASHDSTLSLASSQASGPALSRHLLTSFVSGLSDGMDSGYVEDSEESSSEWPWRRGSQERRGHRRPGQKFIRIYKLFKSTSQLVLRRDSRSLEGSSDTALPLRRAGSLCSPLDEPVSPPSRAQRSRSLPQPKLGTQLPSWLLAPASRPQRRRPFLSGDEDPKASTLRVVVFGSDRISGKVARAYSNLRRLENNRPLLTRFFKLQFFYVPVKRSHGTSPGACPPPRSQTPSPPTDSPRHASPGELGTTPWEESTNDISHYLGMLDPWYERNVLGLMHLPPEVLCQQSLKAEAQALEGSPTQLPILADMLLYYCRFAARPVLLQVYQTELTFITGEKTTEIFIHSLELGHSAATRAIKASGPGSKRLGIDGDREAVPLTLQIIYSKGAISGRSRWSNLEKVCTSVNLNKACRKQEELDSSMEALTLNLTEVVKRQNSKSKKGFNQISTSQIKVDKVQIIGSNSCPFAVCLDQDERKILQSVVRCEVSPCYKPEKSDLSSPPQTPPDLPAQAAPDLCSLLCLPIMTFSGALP
Chain of PI3Kδ (O00329 whole entry, canonical isoform): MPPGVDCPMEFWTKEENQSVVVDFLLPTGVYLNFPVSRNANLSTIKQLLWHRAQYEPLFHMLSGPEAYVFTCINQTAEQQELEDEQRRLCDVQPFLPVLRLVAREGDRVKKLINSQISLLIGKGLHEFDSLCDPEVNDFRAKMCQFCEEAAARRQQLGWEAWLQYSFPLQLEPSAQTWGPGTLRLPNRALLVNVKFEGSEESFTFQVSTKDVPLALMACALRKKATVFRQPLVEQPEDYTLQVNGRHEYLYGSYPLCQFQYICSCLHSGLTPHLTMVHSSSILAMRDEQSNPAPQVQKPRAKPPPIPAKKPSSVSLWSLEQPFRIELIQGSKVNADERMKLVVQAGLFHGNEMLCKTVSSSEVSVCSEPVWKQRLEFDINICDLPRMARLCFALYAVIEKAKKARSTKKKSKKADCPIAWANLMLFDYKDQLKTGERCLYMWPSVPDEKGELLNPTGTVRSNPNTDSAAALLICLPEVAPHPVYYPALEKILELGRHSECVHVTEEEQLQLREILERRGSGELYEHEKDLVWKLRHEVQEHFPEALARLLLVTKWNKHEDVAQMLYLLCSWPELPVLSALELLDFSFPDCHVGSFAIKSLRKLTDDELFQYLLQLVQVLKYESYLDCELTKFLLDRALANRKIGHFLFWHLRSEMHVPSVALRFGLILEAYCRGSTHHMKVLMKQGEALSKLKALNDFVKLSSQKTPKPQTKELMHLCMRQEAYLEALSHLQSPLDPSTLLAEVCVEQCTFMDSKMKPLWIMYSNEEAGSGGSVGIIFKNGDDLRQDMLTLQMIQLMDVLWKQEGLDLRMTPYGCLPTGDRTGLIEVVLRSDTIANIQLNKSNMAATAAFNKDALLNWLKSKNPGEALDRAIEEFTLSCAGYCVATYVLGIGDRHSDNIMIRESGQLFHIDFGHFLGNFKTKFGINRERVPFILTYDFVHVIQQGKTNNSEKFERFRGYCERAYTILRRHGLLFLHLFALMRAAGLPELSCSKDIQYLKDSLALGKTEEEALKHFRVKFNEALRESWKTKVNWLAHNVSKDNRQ
Chain of PI3Kδ (P27986 whole entry partner, canonical isoform): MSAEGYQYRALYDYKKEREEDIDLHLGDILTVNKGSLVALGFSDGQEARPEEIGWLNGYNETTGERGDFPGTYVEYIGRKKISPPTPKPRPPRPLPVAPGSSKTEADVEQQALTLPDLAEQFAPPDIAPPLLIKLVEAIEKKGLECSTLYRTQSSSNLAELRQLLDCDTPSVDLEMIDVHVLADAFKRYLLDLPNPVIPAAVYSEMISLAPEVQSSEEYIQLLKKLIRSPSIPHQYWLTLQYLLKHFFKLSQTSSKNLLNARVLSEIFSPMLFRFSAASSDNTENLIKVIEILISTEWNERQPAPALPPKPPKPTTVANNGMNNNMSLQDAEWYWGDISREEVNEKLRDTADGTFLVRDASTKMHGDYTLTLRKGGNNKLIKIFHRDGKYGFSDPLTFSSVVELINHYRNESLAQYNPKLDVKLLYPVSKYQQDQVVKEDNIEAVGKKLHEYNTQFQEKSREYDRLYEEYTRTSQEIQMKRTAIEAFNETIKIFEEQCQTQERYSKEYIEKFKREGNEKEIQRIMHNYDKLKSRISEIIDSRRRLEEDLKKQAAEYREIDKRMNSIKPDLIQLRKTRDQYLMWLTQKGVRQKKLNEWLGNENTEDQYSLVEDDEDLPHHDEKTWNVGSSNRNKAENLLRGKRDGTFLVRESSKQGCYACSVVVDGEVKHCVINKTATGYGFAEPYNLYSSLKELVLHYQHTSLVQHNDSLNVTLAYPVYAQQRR
Chain of PI3Kβ (P42338 whole entry, canonical isoform): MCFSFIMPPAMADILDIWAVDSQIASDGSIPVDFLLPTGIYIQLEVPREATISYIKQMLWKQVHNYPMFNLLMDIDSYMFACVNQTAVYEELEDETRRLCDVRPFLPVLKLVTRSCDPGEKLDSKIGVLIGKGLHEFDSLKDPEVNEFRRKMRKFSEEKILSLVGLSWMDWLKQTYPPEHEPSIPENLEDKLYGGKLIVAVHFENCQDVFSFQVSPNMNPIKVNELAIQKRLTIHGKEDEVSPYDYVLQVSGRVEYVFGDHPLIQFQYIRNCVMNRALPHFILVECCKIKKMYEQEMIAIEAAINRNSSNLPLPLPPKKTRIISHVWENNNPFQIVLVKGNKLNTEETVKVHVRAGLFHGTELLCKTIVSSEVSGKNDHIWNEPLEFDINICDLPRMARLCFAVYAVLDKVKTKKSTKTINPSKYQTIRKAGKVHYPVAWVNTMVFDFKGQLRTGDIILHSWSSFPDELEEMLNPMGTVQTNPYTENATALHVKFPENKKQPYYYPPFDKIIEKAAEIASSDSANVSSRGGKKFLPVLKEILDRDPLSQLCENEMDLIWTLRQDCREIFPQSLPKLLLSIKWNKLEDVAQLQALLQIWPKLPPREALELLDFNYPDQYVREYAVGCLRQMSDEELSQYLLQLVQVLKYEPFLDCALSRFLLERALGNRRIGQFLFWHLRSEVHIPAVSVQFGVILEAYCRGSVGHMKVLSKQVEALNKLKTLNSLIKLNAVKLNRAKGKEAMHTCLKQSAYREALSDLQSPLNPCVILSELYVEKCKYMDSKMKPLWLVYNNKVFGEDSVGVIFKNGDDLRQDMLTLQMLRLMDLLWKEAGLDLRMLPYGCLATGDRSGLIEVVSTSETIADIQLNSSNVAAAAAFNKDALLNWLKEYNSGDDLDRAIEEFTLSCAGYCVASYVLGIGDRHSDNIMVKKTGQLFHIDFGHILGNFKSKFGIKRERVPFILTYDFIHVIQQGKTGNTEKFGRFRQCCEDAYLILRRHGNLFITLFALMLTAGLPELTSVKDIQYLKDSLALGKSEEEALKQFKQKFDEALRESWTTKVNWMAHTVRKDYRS
Chain of PI3Kβ (P27986 whole entry partner, canonical isoform): as the sequence (P27986 whole entry partner, canonical isoform) above

For the compound `COCCCNC(=O)Nc1cccc(-n2c([C@H](C)Nc3ncnc4[nH]cnc34)nc3cccc(Cl)c3c2=O)c1` [Compound 135, (S)-1-(3-(2-(1-((9H-purin-6-yl)amino)ethyl)-5-chloro-4-oxoquinazolin-3(4H)-yl)phenyl)-3-(3-methoxypropyl)urea], the IC50 (as a rule, the concentration needed to halve the response being measured) amounted to 0.035 µM in test [1], 0.016 µM in test [2] and 3.5 µM in test [3].

For `CCNC(=O)Nc1cccc(-n2c([C@H](C)Nc3ncnc(N)c3C(=O)O)nc3cccc(Cl)c3c2=O)c1` [Compound 136, (S)-4-amino-6-((1-(5-chloro-3-(3-(3-ethylureido)phenyl)-4-oxo-3,4-dihydroquinazolin-2-yl)ethyl)amino)pyrimidine-5-carboxylic acid], the IC50 in test [1] was 0.61 µM; in test [2], 1.8 µM; in test [3], greater than 10 µM.

In the case of `C[C@H](Nc1ncnc(N)c1C#N)c1nc2cccc(Cl)c2c(=O)n1-c1cccc(NC(=O)NCCC(=O)O)c1` [Compound 137, (S)-3-(3-(3-(2-(1-((6-amino-5-cyanopyrimidin-4-yl)amino)ethyl)-5-chloro-4-oxoquinazolin-3(4H)-yl)phenyl)ureido)propanoic acid], the half-maximal inhibitory concentration (IC50) was found to be 0.012 µM in test [1], 0.033 µM in test [2] and 7.6 µM in test [3].

On to `C[C@H](Nc1ncnc(N)c1C#N)c1nc2cccc(Cl)c2c(=O)n1-c1cccc(NC(=O)NC(C)(C)CO)c1` [Compound 138, (S)-1-(3-(2-(1-((6-amino-5-cyanopyrimidin-4-yl)amino)ethyl)-5-chloro-4-oxoquinazolin-3(4H)-yl)phenyl)-3-(1-hydroxy-2-methylpropan-2-yl)urea], for which the concentration for half-maximal inhibition (IC50) in test [1] is 0.007 µM; in test [2], 0.004 µM; in test [3], 5.2 µM.

On to `C[C@H](Nc1ncnc(N)c1C#N)c1nc2cccc(Cl)c2c(=O)n1-c1cccc(NC(=O)NC(C)(C)C(=O)O)c1` [Compound 139, (S)-2-(3-(3-(2-(1-((6-amino-5-cyanopyrimidin-4-yl)amino)ethyl)-5-chloro-4-oxoquinazolin-3(4H)-yl)phenyl)ureido)-2-methylpropanoic acid], for which the half-inhibitory concentration (IC50) in test [1] worked out at 0.013 µM; in test [2] it was 0.03 µM; in test [3] it was 8.1 µM.

Turning to `C[C@H](Nc1ncnc(N)c1C#N)c1nc2cccc(Cl)c2c(=O)n1-c1cccc(NC(=O)NC(C)(C)CCO)c1` [Compound 140, (S)-1-(3-(2-(1-((6-amino-5-cyanopyrimidin-4-yl)amino)ethyl)-5-chloro-4-oxoquinazolin-3(4H)-yl)phenyl)-3-(4-hydroxy-2-methylbutan-2-yl)urea], the IC50 was found to be 0.005 µM in test [1], 0.006 µM in test [2] and 5.1 µM in test [3].

As for `C[C@H](Nc1ncnc(N)c1C#N)c1nc2cccc(Cl)c2c(=O)n1-c1cccc(NC(=O)NCC(C)(C)CO)c1` [Compound 141, (S)-1-(3-(2-(1-((6-amino-5-cyanopyrimidin-4-yl)amino)ethyl)-5-chloro-4-oxoquinazolin-3(4H)-yl)phenyl)-3-(3-hydroxy-2,2-dimethylpropyl)urea], the half-inhibitory concentration (IC50) in test [1] is 0.006 µM; in test [2] it was 0.006 µM; in test [3], 1.6 µM.

`C[C@H](Nc1ncnc(N)c1C#N)c1nc2cccc(Cl)c2c(=O)n1-c1cccc(NC(=O)NCCC(C)(C)O)c1` [Compound 142, (S)-1-(3-(2-(1-((6-amino-5-cyanopyrimidin-4-yl)amino)ethyl)-5-chloro-4-oxoquinazolin-3(4H)-yl)phenyl)-3-(3-hydroxy-3-methylbutyl)urea]: the figures for the IC50 in test [1], in test [2] and in test [3] were 0.006 µM, 0.012 µM and 7.1 µM, respectively.

For `C[C@H](Nc1ncnc(N)c1C#N)c1nc2cccc(Cl)c2c(=O)n1-c1cccc(NC(=O)Nc2ccccc2OCCO)c1` [Compound 143, (S)-1-(3-(2-(1-((6-amino-5-cyanopyrimidin-4-yl)amino)ethyl)-5-chloro-4-oxoquinazolin-3(4H)-yl)phenyl)-3-(2-(2-hydroxyethoxy)phenyl)urea], the half-maximal inhibitory concentration (IC50) was determined as 0.005 µM in test [1], 0.007 µM in test [2] and 1.5 µM in test [3].

`C[C@H](Nc1ncnc(N)c1C#N)c1nc2cccc(Cl)c2c(=O)n1-c1cccc(NC(=O)Nc2ccccc2S(C)(=O)=O)c1` [Compound 144, (S)-1-(3-(2-(1-((6-amino-5-cyanopyrimidin-4-yl)amino)ethyl)-5-chloro-4-oxoquinazolin-3(4H)-yl)phenyl)-3-(2-(methylsulfonyl)phenyl)urea]: the figures for the IC50 in test [1], in test [2] and in test [3] were 0.004 µM, 0.017 µM and 6.5 µM, respectively.

In the case of `C[C@H](Oc1ncnc2scnc12)c1nc2cccc(Cl)c2c(=O)n1-c1cccc(NC(=O)NC2CCCC2)c1` [Compound 146, (S)-1-(3-(5-chloro-4-oxo-2-(1-(thiazolo[5,4-d]pyrimidin-7-yloxy)ethyl)quinazolin-3(4H)-yl)phenyl)-3-cyclopentylurea], the IC50 turned out to be 0.006 µM in test [1], 0.057 µM in test [2] and 2.2 µM in test [3].

In the case of `C[C@H](Oc1ncnc2scnc12)c1nc2cccc(Cl)c2c(=O)n1-c1cccc(NC(=O)NC2(C(F)(F)F)CC2)c1` [Compound 147, (S)-1-(3-(5-chloro-4-oxo-2-(1-(thiazolo[5,4-d]pyrimidin-7-yloxy)ethyl)quinazolin-3(4H)-yl)phenyl)-3-(1-(trifluoromethyl)cyclopropyl)urea], the figures for the IC50 in test [1], in test [2] and in test [3] were 0.012 µM, 0.016 µM and 2.3 µM, respectively.

For the compound `C[C@H](Oc1ncnc2scnc12)c1nc2cccc(Cl)c2c(=O)n1-c1cccc(NC(=O)NCC(F)F)c1` [Compound 148, (S)-1-(3-(5-chloro-4-oxo-2-(1-(thiazolo[5,4-d]pyrimidin-7-yloxy)ethyl)quinazolin-3(4H)-yl)phenyl)-3-(2,2-difluoroethyl)urea], the IC50 in test [1] stood at 0.005 µM; in test [2], 0.008 µM; in test [3], 1.8 µM.

Regarding `C[C@H](Oc1ncnc2scnc12)c1nc2cccc(Cl)c2c(=O)n1-c1cccc(NC(=O)Nc2cc(C(F)(F)F)no2)c1` [Compound 150, (S)-1-(3-(5-chloro-4-oxo-2-(1-(thiazolo[5,4-d]pyrimidin-7-yloxy)ethyl)quinazolin-3(4H)-yl)phenyl)-3-(3-(trifluoromethyl)isoxazol-5-yl)urea], the values for the half-maximal inhibitory concentration (IC50) in test [1], in test [2] and in test [3] were 0.005 µM, 0.047 µM and 0.84 µM, respectively.

With `CCNC(=O)Nc1cccc(-n2c([C@H](C)Oc3ncnc4scnc34)nc3cccc(Cl)c3c2=O)c1` [Compound 151, (S)-1-(3-(5-chloro-4-oxo-2-(1-(thiazolo[5,4-d]pyrimidin-7-yloxy)ethyl)quinazolin-3(4H)-yl)phenyl)-3-ethylurea], the 50% inhibitory concentration (IC50) in test [1] is 0.004 µM; in test [2], 0.02 µM; in test [3], 1.3 µM.

As for `C[C@H](Oc1ncnc2scnc12)c1nc2cccc(Cl)c2c(=O)n1-c1cccc(NC(=O)NCC(F)(F)C(F)(F)F)c1` [Compound 152, (S)-1-(3-(5-chloro-4-oxo-2-(1-(thiazolo[5,4-d]pyrimidin-7-yloxy)ethyl)quinazolin-3(4H)-yl)phenyl)-3-(2,2,3,3,3-pentafluoropropyl)urea], the 50% inhibitory concentration (IC50) was 0.01 µM in test [1], 0.017 µM in test [2] and 2.5 µM in test [3].
